The source of these data is patent publication US20250289800A1, “Selective Parp1 Inhibitor And Application Thereof” (Kangbaida (Sichuan) Biotechnology Co., Ltd., priority 2021, published 2025).

One may read the IC50 as the midpoint of a concentration-inhibition curve. A lower IC50 goes with higher potency. One may read the Cmax as the highest concentration seen after dosing.

One series has as its system MDA-MB-436 cells. Kind of series: MDA-MB-436 cell proliferation inhibition experiment. It is filed as cell-based. The note with it: Homo sapiens, 168 h, 7 d, Celltiter Glo. How it is done: Human breast cancer cell line MDA-MB-436 (supplier: ATCC, Cat #HTB-130) was cultured in an L15 medium containing 10% FBS and 1% penicillin-streptomycin solution at 37° C. and 5% CO2. By means of cell counting, 400 MDA-MB-436 cells were seeded into each well of a 384-well plate and cultured overnight. […] Moreover, blank control wells containing 0.1% DMSO were set. The cells were cultured at 37° C. and 5% CO2 for 7 d, a Celltiter Glo assay kit detection solution was then added, and the chemiluminescence values were determined using a microplate reader. The IC50 value was calculated using GraphPad Prism 8 software.
(ATP-based viability assays read luminescence as a measure of living cells.)

The next series has as its system DLD-1 BRCA2−/− cells. Kind of series: DLD-1 BRCA2−/− cell proliferation inhibition experiment. It is filed as cell-based. The note with it: Homo sapiens, 168 h, 7 d, CellTiter-Glo. The procedure:
3.1 DLD-1 BRCA2^−/− Cell Proliferation Inhibition Experiment Epithelial cell line DLD-1 BRCA2^−/− from human colorectal adenocarcinoma (Horizon Discovery Ltd., Cat No.: HD105-007) was cultured in an RPMI-1640 medium containing 10% FBS, 1% penicillin-streptomycin solution, 1% L-G and 0.1 mg/mL hygromycin at 37° C. and 5% CO2. By means of cell counting, 1000 DLD-1 BRCA2^−/− cells were seeded into each well of a 96-well plate and cultured overnight. Test compounds (2-fold gradient dilution, starting at the highest dose: 10 μM, a total of 9 gradient concentrations) were added the next day. Moreover, blank control wells containing DMSO at the same concentration were set. The cells were cultured at 37° C. and 5% CO2 for 7 d, CellTiter-Glo® Reagent was then added, and the chemiluminescence values were determined using a microplate reader. The IC50 value was calculated using GraphPad Prism 8 software.

Series [1] in a line: Pharmacokinetic test in mice. It is filed as in vivo. Conditions: ICR mice, oral administration (1 mg/kg), plasma. The procedure:
An appropriate amount of the test compound was precisely weighed and formulated into a 0.1 mg/mL solution with 30% DMSO and 30% HP-β-CD for intravenous injection, and the test compound was formulated into a 0.1 mg/mL solution with 0.5% MC for intragastric administration. Healthy adult male ICR mice were fasted overnight and then given the test compound via intravenous injection (0.5 mg/kg) and intragastric administration (1 mg/kg). Blood (anticoagulated with heparin sodium) was collected from the forelimb vein at different time points (0.083 h, 0.25 h, 0.5 h, 1 h, 2 h, 4 h, 8 h and 24 h) after administration. The blood samples were separated by centrifugation at 6800 g at 4° C. for 10 min to obtain plasma, and all the samples were stored at −80° C. for later testing. The concentration of the prototype drug in plasma was determined by an LC-MS/MS method, and the main pharmacokinetic parameters were calculated using Phoenix WinNonlin7.0.

The subject of series [2] is monolayer MDCK-MDR1 cells. Kind of series: Bidirectional permeability evaluation with MDCK-MDR1 cell model. It counts as in vitro ADME. The note with it: 1 μM test compound, 37° C., 2 h. How it is done: In this experiment, monolayer MDCK-MDR1 cells were used and incubated in a 96-well Transwell plate. A transport buffer containing 1 μM test compound was added to an appropriate administration end well on the apical or basal side, and a DMSO-containing transport buffer was added to an appropriate receiving end well. After incubation at 37° C. for 2 h, the cell plate was removed, the samples (50 μL each) were collected from the top and bottom ends and transferred to a new 96-well plate, and the protein was precipitated by subsequently adding acetonitrile. The samples were analyzed using LC-MS/MS and the concentration of the test compound was determined. The concentration data were used to calculate the apparent permeability coefficients of the transport from the apical side to the basal side and from the basal side to the apical side of the monolayer cells so as to calculate the efflux rate. The integrity of the monolayer cells was assessed by the leakage of Lucifer Yellow after 2 h of incubation.

As for `CCc1cc2ncc(CN3CCN(c4ccc(-c5cnn(C)c5)cn4)CC3)cc2[nH]c1=O` [Compound 21, 3-ethyl-7-((4-(5-(1-methyl-1H-pyrazol-4-yl)pyridin-2-yl)piperazin-1-yl)methyl)-1,5-naphthyridin-2(1H)-one], the IC50 with MDA-MB-436 cells is 27.8 nM. Take `CCc1cc2ncc(CN3CCN(c4ccc(C#N)nc4)CC3)cc2[nH]c1=O` [Compound 4, 5-(4-((7-ethyl-6-oxo-5,6-dihydro-1,5-naphthyridin-3-yl)methyl)piperazin-1-yl)picolinonitrile]: 5.4 nM corresponded to half-maximal inhibition with DLD-1 BRCA2−/− cells (IC50). `CCc1cc2ncc(CN3CCN(c4ccc(C(F)F)cn4)CC3)cc2[nH]c1=O` [Compound 24, 7-((4-(5-(difluoromethyl)pyridin-2-yl)piperazin-1-yl)methyl)-3-ethyl-1,5-naphthyridin-2(1H)-one] yielded an IC50 with MDA-MB-436 cells of 8.3 nM.

As to `CCc1cc2ncc(CN3CCN(c4ccc(C(=O)NC)nc4)CC3)cc2[nH]c1=O` [Comparative example 1], in series [1], the “AUC0-t” value is 47560 ng·h/mL, the highest concentration (Cmax) worked out at 5410 ng/mL and the “T1/2” value is on record as 6.25 h. In addition, in series [2] (apical to basal), the “MDCK-MDRII Papp (A-B) (10−6, cm/s)” value is on record as 3.38 10−6, cm/s. Besides, the “MDCK-MDRII Papp (B-A) (10−6, cm/s)” value in series [2] (basal to apical) is listed as 43.78 10−6, cm/s. `CCc1cc2ncc(CN3CCN(c4ccc(Cl)cn4)CC3)cc2[nH]c1=O` [Compound 10, 7-((4-(5-chloropyridin-2-yl)piperazin-1-yl)methyl)-3-ethyl-1,5-naphthyridin-2(1H)-one] yielded an IC50 with MDA-MB-436 cells of 12.1 nM. On to `CCc1cc2ncc(CN3CCN(c4ccc(C#N)cc4F)CC3)cc2[nH]c1=O` [Compound 1, 4-(4-((7-ethyl-6-oxo-5,6-dihydro-1,5-naphthyridin-3-yl)methyl)piperazin-1-yl)-3-fluorobenzonitrile], for which the IC50 stood at 1.7 nM in the series with DLD-1 BRCA2−/− cells and 12.2 nM with MDA-MB-436 cells. Regarding `CCc1cc2ncc(CN3CCN(c4ccc(F)cn4)CC3)cc2[nH]c1=O` [Compound 3, 3-ethyl-7-((4-(5-fluoropyridin-2-yl)piperazin-1-yl)methyl)-1,5-naphthyridin-2(1H)-one], the figures for the IC50 in the series with DLD-1 BRCA2−/− cells and with MDA-MB-436 cells were 3.3 nM and 11.1 nM, respectively.
